Measurements reported in BigSolDB 2.1.

N[C@@H](C(=O)O)c1ccc(O)cc1
Conditions	solubility (mole fraction)
in DMF, 278.27 K	1.99e-05
in DMF, 283.23 K	2.39e-05
in DMF, 288.18 K	2.67e-05
in DMF, 293.2 K	3.38e-05
in DMF, 298.39 K	4.03e-05
in DMF, 303.18 K	4.93e-05
in DMF, 308.26 K	6e-05
in DMF, 313.2 K	7.04e-05
in DMF, 318.39 K	8.68e-05
in DMF, 323.15 K	0.000102
in ethanol, 278.28 K	9.26e-05
in ethanol, 283.42 K	9.3e-05
in ethanol, 288.18 K	9.34e-05
in ethanol, 293.24 K	9.37e-05
in ethanol, 298.38 K	9.4e-05
in ethanol, 303.17 K	9.42e-05
in ethanol, 308.39 K	9.43e-05
in ethanol, 313.19 K	9.44e-05
in ethanol, 318.37 K	9.45e-05
in ethanol, 323.26 K	9.45e-05
in methanol, 278.17 K	0.00042
in methanol, 283.22 K	0.000421
in methanol, 288.21 K	0.000421
in methanol, 293.28 K	0.000423
in methanol, 298.24 K	0.000424
in methanol, 303.32 K	0.000425
in methanol, 308.2 K	0.000426
in methanol, 313.26 K	0.000427
in methanol, 318.27 K	0.000429
in methanol, 323.25 K	0.00043
in tetrachloromethane, 278.38 K	0.000225
in tetrachloromethane, 283.23 K	0.000227
in tetrachloromethane, 288.38 K	0.000231
in tetrachloromethane, 293.36 K	0.000234
in tetrachloromethane, 298.29 K	0.000239
in tetrachloromethane, 303.21 K	0.000244
in tetrachloromethane, 308.36 K	0.00025
in tetrachloromethane, 313.3 K	0.000258
in tetrachloromethane, 318.24 K	0.000264
in tetrachloromethane, 323.19 K	0.000272
in toluene, 278.28 K	0.000157
in toluene, 283.33 K	0.000164
in toluene, 288.38 K	0.000165
in toluene, 293.32 K	0.000172
in toluene, 298.23 K	0.000175
in toluene, 303.32 K	0.00018
in toluene, 308.39 K	0.000189
in toluene, 313.37 K	0.000195
in toluene, 318.17 K	0.000205
in toluene, 323.27 K	0.000216
in water, 278.27 K	0.0018
in water, 283.25 K	0.00186
in water, 288.37 K	0.00194
in water, 293.17 K	0.00203
in water, 298.26 K	0.00215
in water, 303.29 K	0.00229
in water, 308.26 K	0.00244
in water, 313.28 K	0.00261
in water, 318.17 K	0.00279
in water, 323.21 K	0.00299
